The test system of the test is MV4:11 human cancer cell lines. Kind of test: Cellular viability / anti-proliferative activity, CellTiter-Glo, 5 day protocol. In kind it is cell-based. The following applies: Homo sapiens, MV4-11, 120 h, MV4:11 cells; 5 day incubation; CellTiter-Glo; mean of minimum two replicates; read-out: GI50 on cellular proliferation of MV4:11 human cancer cell lines. In outline:
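Compounds were tested over 22 two-fold dilutions starting at 30 μM in 0.3% DMSO, with 200 cells per well (7200 cells/mL). Viability was measured by CellTiter-Glo luminescence at day 5.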
As to `COc1ccnc([C@H](C)N2CCc3c(cc(Cn4ccn(C(F)F)c4=N)cc3-c3cn(C)nc3C(F)(F)F)C2=O)c1` [Example 72, (S)-7-((3-(Difluoromethyl)-2-imino-2,3-dihydro-1H-imidazol-1-yl)methyl)-2-(1-(4-methoxypyridin-2-yl)ethyl)-5-(1-methyl-3-(trifluoromethyl)-1H-pyrazol-4-yl)-3,4-dihydroisoquinolin-1(2H)-one], the GI50 was less than 50 nM.
Take `COc1cc(CN2CCc3c(OCC(F)(F)F)cc(Cn4ccn(C)c4=N)cc3C2=O)cc(OC)c1` [Example 73, 2-(3,5-Dimethoxybenzyl)-7-((2-imino-3-methyl-2,3-dihydro-1H-imidazol-1-yl)methyl)-5-(2,2,2-trifluoroethoxy)-3,4-dihydroisoquinolin-1(2H)-one]: the GI50 is more than 938 nM.
The result for `CCn1cc(-c2cc(Cn3ccn(C)c3=N)cc3c2CCN(Cc2cc(C)nn2C)C3=O)c(C(F)(F)F)n1` [Example 74] reads more than 938 nM.
The result for `COc1cc(CN2CCc3c(OCC4CC4)cc(Cn4ccn(C)c4=N)cc3C2=O)cc(OC)c1` [Example 75, 5-(Cyclopropylmethoxy)-2-(3,5-dimethoxybenzyl)-7-((2-imino-3-methyl-2,3-dihydro-1H-imidazol-1-yl)methyl)-3,4-dihydroisoquinolin-1(2H)-one] reads more than 938 nM.
The result for `COc1cc(CN2CCc3c(cc(Cn4ccn(C)c4=N)cc3-c3c(C)noc3C)C2=O)cc(OC)c1` [Example 76, 2-(3,5-Dimethoxybenzyl)-5-(3,5-dimethylisoxazol-4-yl)-7-((2-imino-3-methyl-2,3-dihydro-1H-imidazol-1-yl)methyl)-3,4-dihydroisoquinolin-1(2H)-one] reads more than 938 nM; that for `CCn1cc(-c2cc(Cn3ccn(C)c3=N)cc3c2CCN(Cc2cn(C)nc2C)C3=O)c(C(F)(F)F)n1` [Example 77, 2-((1,3-Dimethyl-1H-pyrazol-4-yl)methyl)-5-(1-ethyl-3-(trifluoromethyl)-1H-pyrazol-4-yl)-7-((2-imino-3-methyl-2,3-dihydro-1H-imidazol-1-yl)methyl)-3,4-dihydroisoquinolin-1(2H)-one], more than 938 nM; that for `Cc1cc([C@H](C)N2CCc3c(OCC4CC4)cc(Cn4ccn(C)c4=N)cc3C2=O)ccc1F` [Example 78, (S)-5-(Cyclopropylmethoxy)-2-(1-(4-fluoro-3-methylphenyl)ethyl)-7-((2-imino-3-methyl-2,3-dihydro-1H-imidazol-1-yl)methyl)-3,4-dihydroisoquinolin-1(2H)-one], more than 938 nM.
With `Cc1cc([C@H](C)N2CCc3c(cc(Cn4ccn(C)c4=N)cc3-c3cn(C)nc3C(F)(F)F)C2=O)ccc1F` [Example 79, (S)-2-(1-(4-Fluoro-3-methylphenyl)ethyl)-7-((2-imino-3-methyl-2,3-dihydro-1H-imidazol-1-yl)methyl)-5-(1-methyl-3-(trifluoromethyl)-1H-pyrazol-4-yl)-3,4-dihydroisoquinolin-1(2H)-one], the GI50 was less than 50 nM.
The result for `COc1cc(CN2CCc3c(cc(Cn4ccoc4=N)cc3-c3cccnc3C(F)(F)F)C2=O)cc(OC)c1` [Example 80, 2-(3,5-Dimethoxybenzyl)-7-((2-iminooxazol-3(2H)-yl)methyl)-5-(2-(trifluoromethyl)pyridin-3-yl)-3,4-dihydroisoquinolin-1(2H)-one] reads less than 50 nM; that for `COc1cc(CN2CCc3c(cc(Cn4ccoc4=N)cc3-c3ccc(F)cc3C)C2=O)cc(OC)c1` [Example 81, 2-(3,5-Dimethoxybenzyl)-5-(4-fluoro-2-methylphenyl)-7-((2-iminooxazol-3(2H)-yl)methyl)-3,4-dihydroisoquinolin-1(2H)-one], 155 nM.
Under `COc1cc(CN2CCc3c(cc(CN4CCOC4=N)cc3-c3cccnc3C(F)(F)F)C2=O)cc(OC)c1` [Example 82, 2-(3,5-Dimethoxybenzyl)-7-((2-iminooxazolidin-3-yl)methyl)-5-(2-(trifluoromethyl)pyridin-3-yl)-3,4-dihydroisoquinolin-1(2H)-one] stands 55 nM.
With `COc1ccnc(CN2CCc3c(cc(CN4CCOC4=N)cc3-c3cn(C)nc3C(F)(F)F)C2=O)c1` [Example 83, 7-((2-Iminooxazolidin-3-yl)methyl)-2-((4-methoxypyridin-2-yl)methyl)-5-(1-methyl-3-(trifluoromethyl)-1H-pyrazol-4-yl)-3,4-dihydroisoquinolin-1(2H)-one], the GI50 was less than 50 nM.
Under `COc1ccnc(CN2CCc3c(cc(Cn4ccoc4=N)cc3-c3cn(C)nc3C(F)(F)F)C2=O)c1` [Example 84, 7-((2-Iminooxazol-3(2H)-yl)methyl)-2-((4-methoxypyridin-2-yl)methyl)-5-(1-methyl-3-(trifluoromethyl)-1H-pyrazol-4-yl)-3,4-dihydroisoquinolin-1(2H)-one] stands less than 50 nM.
On to `COc1ccnc(CN2CCc3c(cc(Cn4ccoc4=N)cc3-c3cn(C)nc3C)C2=O)c1` [Example 85, 5-(1,3-Dimethyl-1H-pyrazol-4-yl)-7-((2-iminooxazol-3(2H)-yl)methyl)-2-((4-methoxypyridin-2-yl)methyl)-3,4-dihydroisoquinolin-1(2H)-one], for which the GI50 stood at 57 nM.
Turning to `CCn1cc(-c2cc(CN3CCOC3=N)cc3c2CCN(Cc2cc(OC)ccn2)C3=O)cn1` [Example 86, 5-(1-Ethyl-1H-pyrazol-4-yl)-7-((2-iminooxazolidin-3-yl)methyl)-2-((4-methoxypyridin-2-yl)methyl)-3,4-dihydroisoquinolin-1(2H)-one], the GI50 came to 740 nM.
Consider `CCn1cc(-c2cc(Cn3ccoc3=N)cc3c2CCN(Cc2cc(OC)ccn2)C3=O)cn1` [Example 87, 5-(1-Ethyl-1H-pyrazol-4-yl)-7-((2-iminooxazol-3(2H)-yl)methyl)-2-((4-methoxypyridin-2-yl)methyl)-3,4-dihydroisoquinolin-1(2H)-one], for which the GI50 amounted to 837 nM.
The result for `Cc1ccnc(CN2CCc3c(cc(Cn4ccoc4=N)cc3-c3cn(C)nc3C(F)(F)F)C2=O)c1` [Example 88, 7-((2-Iminooxazol-3(2H)-yl)methyl)-5-(1-methyl-3-(trifluoromethyl)-1H-pyrazol-4-yl)-2-((4-methylpyridin-2-yl)methyl)-3,4-dihydroisoquinolin-1(2H)-one] reads less than 50 nM.
The result for `CCn1cc(-c2cc(Cn3ccoc3=N)cc3c2CCN(Cc2cc(OC)ccn2)C3=O)c(C(F)(F)F)n1` [Example 89, 5-(1-Ethyl-3-(trifluoromethyl)-1H-pyrazol-4-yl)-7-((2-iminooxazol-3(2H)-yl)methyl)-2-((4-methoxypyridin-2-yl)methyl)-3,4-dihydroisoquinolin-1(2H)-one] reads less than 50 nM; that for `CCn1cc(-c2cc(Cn3ccoc3=N)cc3c2CCN(Cc2cc(OC)ccn2)C3=O)c(C)n1` [Example 90, 5-(1-Ethyl-3-methyl-1H-pyrazol-4-yl)-7-((2-iminooxazol-3(2H)-yl)methyl)-2-((4-methoxypyridin-2-yl)methyl)-3,4-dihydroisoquinolin-1(2H)-one], 209 nM; that for `CCn1cc(-c2cc(Cn3ccoc3=N)cc3c2CCN([C@@H](C)c2cc(OC)ccn2)C3=O)c(C(F)(F)F)n1` [Example 91, (S)-5-(1-Ethyl-3-(trifluoromethyl)-1H-pyrazol-4-yl)-7-((2-iminooxazol-3(2H)-yl)methyl)-2-(1-(4-methoxypyridin-2-yl)ethyl)-3,4-dihydroisoquinolin-1(2H)-one], less than 50 nM.

Source of the values: US11999716B2, “WDR5 inhibitors and modulators” (priority 2018, dated 2024).
